Laboratory results from patent publication US20220169598A1, “HALOGENATED PHENYLSULFONAMIDE HYDROXAMIC ACID COMPOUNDS, COMPOSITIONS AND USES THEREOF AS SELECTIVE HDAC6 INHIBITORS” (2681603 ONTARIO INC., priority 2019, published 2022).

Tests used:
panel of 97 kinases = assay: Kinome screen; format: biochemical; conditions: kinase screen
K562 = assay: Cytotoxicity in cell lines; format: cell-based; conditions: Homo sapiens, K562; Table 4; read-out: IC50 K562
Experimental: (§1) The cytotoxicity of exemplary compounds of the application was tested in multiple cell lines including MV-4-11, MOLM-13, MCF-7, MRC9, K562 and MM.1S. The therapeutic index was evaluated by determining the toxicity of the exemplary compounds in healthy cell lines including fibroblasts and HUVEC.

MOLM-13 = assay: Cytotoxicity in cell lines; format: cell-based; conditions: Homo sapiens, MOLM-13; Table 4; read-out: IC50 MOLM-13
Experimental: as §1

MRC9 = assay: Cytotoxicity in cell lines; format: cell-based; conditions: Table 4
Experimental: as §1

HeLa cells = assay: Immunofluorescence analysis of α-tubulin and histone H3 acetylation; format: cell-based; conditions: 6 h treatment
From the text: Similar analysis is shown for exemplary compound I-34 in FIG. 19.

SMILES | inhibitory activity on a panel of 97 kinases (panel of 97 kinases) | IC50 (K562) [µM] | IC50 (MOLM-13) [µM] | IC50 (MRC9) [µM] | effect on α-tubulin acetylation (immunofluorescence) (HeLa cells)
O=C(NO)c1ccc(CN(Cc2cccnc2)S(=O)(=O)c2cc(F)c(F)c(F)c2F)cc1 [Compound I-18, N-hydroxy-4-((2,3,4,5-tetrafluoro-N-(pyridin-3-ylmethyl)phenylsulfonamido)methyl)benzamide] | limited to no inhibitory activity |  |  |  | 
O=C(NO)c1ccc(CN(C2CC2)S(=O)(=O)c2cc(F)c(F)c(F)c2F)cc1 [Compound I-13, 4-((N-cyclopropyl-2,3,4,5-tetrafluorophenylsulfonamido)methyl)-N-hydroxybenzamide] |  | 7.4 | 2 | > 50 | substantially strong effect on tubulin acetylation
